Source: patent publication US7846910B2, “Pharmaceutical composition, composition for screening therapeutics preventing and treating beta amyloid accumulation in brain comprising GCP II (glutamate carboxypeptidase II) as an active ingredient and method for screening using the same” (Korea Center for Disease Control and Prevention, priority 2005, dated 2010)

Columns and labels:
synthetic Aβ40 or Aβ42 = assay: Aβ degradation in HEK293 cells over-expressing GCP-II (ELISA of remaining Aβ in medium); format: cell-based, human
Method: To investigate the Aβ degradation by GCP-II, synthetic Aβ40 (FIG. 1A) or Aβ42 (FIG. 1B) was added to the cell culture solution containing HEK293 cells over-expressing GCP-II and HEK293 cells over-expressing NEP and IDE which are known as Aβ degrading enzymes. After reaction, the level of Aβ in the medium was measured by ELISA.
To measure the level of Aβ degradation by GCP-II, 2 ng/uL of synthetic Aβ40 or Aβ42 (Biosource international INC.) was added to HEK293 cell culture medium. Twenty hours later, the remaining Aβ in the medium was quantified by ELISA kit (Biosource international INC.).
HEK293 cells (human embryonic kidney cells) over-expressing GCP-II were temporarily transfected with GCP-II expression vector ‘pHA-GCPII’ or ‘pmyc-GCPII’ prepared in the above Example <1-1>, by using a transfection reagent (Lipofectamine Plus™ Reagent, Invitrogen, USA). The HEK293 cells with the temporary insertion of GCP-II were cultured in DMEM (Dulbecco's modified Eagle's medium) supplemented with 10% FBS (fetal bovine serum), 100 IU/ml of penicillin and 100[…]/ml of streptomycin. Cell lysate was obtained from the HEK293 cells by using RIPA buffer containing a protease inhibitor (aprotinin, leupeptin or phenylmethyl sulfonyl fluoride), and GCP-II protein was separated with 8% SDS-PAGE to examine the expression of GCP-II.
HEK293 cells transfected with NEP and IDE plasmids were used as a positive control and the cells transfected with mock vector were used as a negative control. The expressions of human GCP-II and NEP in the transfected HEK293 cells were investigated by Western blot analysis using anti-GCP-II antibody (MAB544B, Maine Biotechnology) or anti-NEP antibody (L-CD10-270, Novocastra) respectively (FIG. 1C).

Aβ40 = assay: Aβ degradation in primary cortical cells over-expressing GCP-II by lenti-virus (ELISA); format: cell-based, rat; details: infected by 10, 20 and 50 MOI for three days, Aβ40 added for 20 hours
Source text: To investigate whether Aβ degradation effect of GCP-II was still observed in cortical cells or not, GCP-II was over-expressed in primary cortical cells by using lenti-virus, and then the level of Aβ degradation was investigated.
To investigate whether the expression of GCP-II can degrade Aβ in cortical cells, GCP-II was over-expressed in the primary cortical cells by using lenti-virus, followed by investigation of Aβ degradation (FIG. 2). The primary cortical cells were separated and cultured from E16 rats (Sprague-Dawley rats). To prevent non-neuronal cells, which took less than 10% in the culture cells, from spreading, the cells were transferred and further cultured in a 24 well plate (1×10^5 cells/well) containing 5-fluoro-2-deoxyuridine from the 3-6 days after the first culture. To prepare lenti-virus expressing GCP-II, GCP-II was inserted into pLentiH1.2 vector (named ‘pLentiH1.2-GCPII’, which was then introduced into 293T cells along with pLentiH1.2-GCP-II and packaging construct and envelope construct. Forty eight hours later, the concentration of the virus released in the medium was measured.
The primary cortical cells were infected with Lenti-GCP-II for three days, to which Aβ40 was added for 20 hours. Then, the level of Aβ remaining in the medium was measured by ELISA as explained in Example 1. […]

amylin = assay: GCP-II substrate specificity, MALDI-TOF molecular weight analysis; format: biochemical; details: 37° C. for 15 hours
Method: (§1) To investigate whether GCP-II degrades Aβ specifically, GCP-II was reacted with amylin and ACTH (adrenocorticotropic hormone) or insulin β-chain at 37° C. for 15 hours, followed by measuring the molecular weight of each sample with a molecular weight analyzer (FIG. 7).

insulin β-chain = assay: as above; format: biochemical; details: 37° C. for 15 hours
Method: as §1

[1] = test system: ACTH (adrenocorticotropic hormone); assay: as above; format: biochemical; details: 37° C. for 15 hours
Method: as §1

Aβ40 and Aβ42 = assay: Aβ yield in cerebral cortex of mice treated with GCP-II inhibitor (ELISA); format: in vivo; details: transgenic mouse (APP Swedish/presenilin delta 9), 10 mg/kg into visceral cavity twice a week, 30 days, PBS control
Method: (§2) To conform whether GCP-II can actually degrade over-expressing Aβ in vivo, the present inventors investigated Aβ degradation capacity by GCP-II inhibitor in a transgenic mouse over-expressing these Aβ. Concretely, after prepared genetically Aβover-expressing dementia model mouse (APP Swdish/presenilin delta 9 deltion, 12 weeks, The Hackson Laboratory, USA), injected into visceral cavity twice in a week, dosage of 10 mg/kg, 30 days. At this time, PBS used as a control. After finally injected GCP-II inhibitor, cerebral cortex, hippocampus and cerebellum in mouse brain was dissected and measured their weight respectively using microblance. And then, the above tissues were incubated in 6 M guanidine-hydrochrolide solution, room temperature, 4 hours and obtained supernatant by centrifugation after added iced PBS at 1/10 ratio. […] Then treated HRP (horseradish peroxidase) tagging secondly actibody, the above reactant was measured absorbance at 450 nm wavelength after treated stained using TMB (tetramethylbensidine). To conform whether GCP-II inhibitor was treated correctly, a part of the above mouse brain tissue were dissected and detected GCP-II activaty. […] In this manner, isolated sample were measured GCP-II activity using isotope meter.

GCP-II = biological target: T1, GCP-II (Mus musculus, UniProt O35409); assay: GCP-II activity in brain tissue of mice treated with GCP-II inhibitor (3H-NAAG); format: in vivo; details: 10 mg/kg twice a week, 30 days
T1 construct: the cell membrane layer existed GCP-II was isolated from the mouse brain tissue; from tissue; host or cells: Brain membrane fraction of wild-type and APP Swedish/presenilin delta-9 transgenic mice
T1 sequence (O35409 whole entry): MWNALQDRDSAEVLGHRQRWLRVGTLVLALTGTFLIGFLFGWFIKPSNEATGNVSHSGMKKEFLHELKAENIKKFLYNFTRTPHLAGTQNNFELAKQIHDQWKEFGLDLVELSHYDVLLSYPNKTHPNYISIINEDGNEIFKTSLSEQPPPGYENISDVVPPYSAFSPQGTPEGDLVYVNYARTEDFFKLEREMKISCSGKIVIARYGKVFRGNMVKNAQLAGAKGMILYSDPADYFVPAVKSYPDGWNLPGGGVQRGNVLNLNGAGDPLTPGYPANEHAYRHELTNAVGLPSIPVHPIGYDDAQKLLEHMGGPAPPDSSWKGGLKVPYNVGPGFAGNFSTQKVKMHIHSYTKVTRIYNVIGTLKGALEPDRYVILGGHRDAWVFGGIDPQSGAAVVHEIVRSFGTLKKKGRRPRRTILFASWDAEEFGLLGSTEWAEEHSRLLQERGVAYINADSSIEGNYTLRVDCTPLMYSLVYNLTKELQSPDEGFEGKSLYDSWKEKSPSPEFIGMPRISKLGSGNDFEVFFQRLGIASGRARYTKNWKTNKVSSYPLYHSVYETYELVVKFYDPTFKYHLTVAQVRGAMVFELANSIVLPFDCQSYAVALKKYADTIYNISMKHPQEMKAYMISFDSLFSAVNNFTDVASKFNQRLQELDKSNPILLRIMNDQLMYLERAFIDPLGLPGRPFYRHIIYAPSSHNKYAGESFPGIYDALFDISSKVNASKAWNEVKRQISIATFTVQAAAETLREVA
Method: as §2

[2] = Enzyme activity (Km) of purified rGCP-II, [3H] glutamate release; format: biochemical; details: 0.002-2 μM substrate, 37° C.
Method: The enzyme activity of rGCP-II was saturated from 1.0 μM of N-acetyl-L-aspartyl-L-[3,4-^3H] and as a result, the Km value of rGCP-II was determined to be 0.5 μM.

endogenous Aβ42 = assay: Degradation of endogenous Aβ from swAPP stable HEK293 cells by rGCP-II (ELISA); format: biochemical, human; details: #2 colony of swAPP stable cells, 0, 0.5, 2.5 and 10[…]/μL of rGCP-II
Source text: To investigate whether human GCP-II can actually degrade endogenous Aβ a cell line stably expressing ^swAPP (Swedish mutant APP) gene involved in the over-production of Aβ was constructed. For this construction, ^swAPP was introduced into HEK293 cells, followed by selection with G418. The recovered medium was reacted with rGCP-II protein and then Aβ remaining unreacted in the medium was quantified by ELISA (FIG. 8).
The concentration of Aβ42 and the expression level of APP were used as standards for the selection of ^swAPP stable cell colonies. […] As a result, the level of endogenous Aβ42 was decreased. From the above result, it was confirmed that rGCP-II is able to degrade physiologically generated (endogenous) Aβ alike (FIG. 8B).

[3] = test system: Aβ monomer and oligomer (multimer); assay: Degradation of Aβ monomer and multimer by rGCP-II (Western blotting); format: biochemical; details: Aβ matured for 7 days, reacted 20 hours, increasing GCP-II concentration
Method: Western blotting was performed using anti-Aβ antibody (6E10) more than 5 times (FIG. 9A) and the results were quantified by an image program (Image J program, NIH, USA) (FIG. 9B).

[4] = test system: soluble Aβ40 and insoluble Aβ40; assay: Degradation of soluble and insoluble Aβ from cerebral cortex by rGCP-II; format: biochemical
Method: The cerebral cortex was homogenized in 50 mM Tris-HCl (TBS) containing protease inhibitor cocktail (pH 7.6), followed by centrifugation at 4° C. with 100,000 g for 40 minutes. The supernatant was defined as a soluble fragment. The pellet was sonicated in 6 M guanidine-HCl solution containing protease inhibitor cocktail, which was defined as an insoluble fragment. The concentrations of each soluble Aβ and insoluble Aβ were measured.
The soluble Aβ or insoluble Aβ was co-cultured with rGCP-II.

[5] = GCP-II over-expressing HEK293 cells, compared with mock vector

In the case of “GCP-II: transmembrane metalloproteinase glutamate carboxypeptidase II (SEQ. ID. NO: 2), over-expressed in cells from pHA-GCPII or pMyc-GCPII”, the “decrease of Aβ40 level in cell culture medium” value (synthetic Aβ40 or Aβ42; [5]) is reported as 30%, the “decrease of Aβ42 level in cell culture medium” value (synthetic Aβ40 or Aβ42; [5]) is reported as 30% and the “level of Aβ remaining in the culture medium” value (synthetic Aβ40 or Aβ42; HEK293 cells expressing GCP-II, 20 hours after addition of Aβ, compared with cells transfected with mock vector) is reported as 60±5%. For the same compound, the “Aβ reduction in primary cortical cells” value (Aβ40) was “more than 90%”, the “degradation of amylin (MALDI-TOF peaks)” value (amylin) was “two peaks at 1500 and 2000” and the “degradation of insulin β-chain” value (insulin β-chain) was “not degraded”. The “degradation of ACTH” value [1] was “not degraded”.

With `O=C(O)CCC(CP(=O)(O)O)C(=O)O` (stereo not shown) [2-PMPA] the “increase of yield of Aβ42 in cerebral cortex versus control” value (Aβ40 and Aβ42) was “about 30%”, the “yield of Aβ40 in cerebral cortex versus control” value (Aβ40 and Aβ42) was “no significantly difference” and the “reduction of GCP-II activity in brain” value (GCP-II; transgenic mouse) was “about 30%”. For the same compound, the “reduction of GCP-II activity in brain” value (GCP-II; wild type mouse) was “about 50%”.

With “rGCP-II: recombinant GCP-II protein expressed in insect cells (Sf21) with baculovirus vector and purified on a Ni-chelating column” the Km [2] was 0.5 µM, the “level of endogenous Aβ42” value (endogenous Aβ42) was “decreased” and the “degradation of Aβ oligomer versus monomer” value [3] was “reduced faster than Aβ monomer”. For the same compound, the “reduction of insoluble Aβ40” value ([4]; insoluble fragment of cerebral cortex co-cultured with rGCP-II) was 35% and the “reduction of soluble Aβ40” value ([4]; soluble fragment of cerebral cortex co-cultured with rGCP-II) was 20%.
